One experiment deals with T1, B16F10 cell tyrosinase (Mus musculus, UniProt P11344).
T1 construct: endogenous in cells; host or cells: B16F10 murine cells, stimulated with α-MSH and IBMX
T1 sequence (P11344 19-533): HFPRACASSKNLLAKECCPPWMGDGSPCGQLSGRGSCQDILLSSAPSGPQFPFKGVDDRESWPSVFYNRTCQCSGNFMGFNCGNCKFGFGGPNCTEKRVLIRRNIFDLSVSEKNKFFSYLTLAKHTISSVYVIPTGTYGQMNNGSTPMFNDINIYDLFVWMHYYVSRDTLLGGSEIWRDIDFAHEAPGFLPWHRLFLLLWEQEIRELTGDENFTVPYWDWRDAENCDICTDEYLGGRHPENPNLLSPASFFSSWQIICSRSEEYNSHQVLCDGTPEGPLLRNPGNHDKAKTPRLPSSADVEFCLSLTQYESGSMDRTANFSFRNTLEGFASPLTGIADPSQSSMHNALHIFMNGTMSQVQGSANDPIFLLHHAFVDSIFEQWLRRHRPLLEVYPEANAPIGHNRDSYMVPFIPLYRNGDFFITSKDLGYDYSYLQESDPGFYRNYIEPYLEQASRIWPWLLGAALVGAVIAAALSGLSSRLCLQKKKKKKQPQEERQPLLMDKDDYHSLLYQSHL
The experiment in a line: In situ cellular tyrosinase activity assay using B16F10 cells. It is filed as cell-based, murine. On the procedure:
After 72 h of incubation, the cells were treated with an excessive amount of L-dopa for 2 h, and then the melanin-stained cells were photographed, and the pigmented areas of the cells were determined using an ATTO CS Analyzer (ATTO, Tokyo, Japan).
B16F10 (3 × 10^3 cells/well) cells in a 24-well plate were incubated for 24 h in a 5% CO2 incubator maintained at 37 °C. […] Stimulators (α-MSH and IBMX; 1 μM and 200 μM, respectively) were exposed to cells 1 h after treatment with the test sample, and the cells were incubated for 72 h in a 5% CO2 incubator. The cells were fixed for 40 min using paraformaldehyde solution (4%) (Sigma-Aldrich, St. Louis, MO, USA), washed with PBS (pH 7.4), and permeabilized for 2 min using Triton X-100 (0.1%). After washing twice with PBS, each well was exposed to L-dopa solution (500 μL; 2 mM). After incubation for 2 h, images of the cells stained with excess melanin were obtained using a camera connected to a microscope (Motic, Hong Kong).

Experiment [1] can be described thus: DPPH radical scavenging assay. The settings on record: 500 μM; 30 min in the dark. The procedure: DPPH radical scavenging activity was determined by mixing the DPPH solution with compounds 1–13, leaving it in the dark at 20 °C for 30 min, and measuring the optical density at 517 nm. Ascorbic acid (AA) was used as a positive control to compare the scavenging activity. All test samples were used at 500 μM.
An aliquot (20 μL) of test sample (compounds 1–13 and ascorbic acid [positive control]; 5 mM) in DMSO and 180 μL DPPH solution (0.2 mM) in methanol were mixed in each well of a 96-well plate. The mixed solution was kept in the dark at 18 °C for 30 min. A VE microplate reader was used to measure the optical density of each well at 517 nm.

In another experiment the target is mushroom tyrosinase (Agaricus bisporus, UniProt C7FF04). As to the kind of experiment: Mushroom tyrosinase inhibitory activity assay (L-dopa or L-tyrosine as substrate). It is filed as biochemical. The procedure:
In the inhibition experiments, L-dopa and L-tyrosine were used as enzyme substrates.
The plate was incubated at 37 °C for 30 min, and absorbance of dopachrome formation was recorded spectrophotometrically at 475 nm using a VersaMax® Elisa (VE) microplate reader (Molecular Devices, San Jose, CA, USA) to determine tyrosinase inhibition activity. A VE microplate reader was used in all subsequent experiments to measure optical density. All experiments were carried out independently three times.

Another experiment relates to B16F10 cells. The experiment in a line: Cellular melanin content assay using B16F10 cells. The format is cell-based, murine. On the procedure:
After 72 h of incubation, the melanin content was evaluated by measuring the optical density at 405 nm.
The plate was incubated in a CO2 incubator for 1 h. Each well was treated with stimulators (α-MSH and IBMX; 1 μM and 200 μM, respectively) and incubated in a CO2 incubator for 72 h. The incubated cells were rinsed twice with PBS (pH 7.4). 1N–NaOH solution (100 μL) was added to each well and warmed at 60 °C for 1 h. The lysates were transferred to each well of a 96-well plate. The optical density was measured at 405 nm.

Sequence of mushroom tyrosinase (C7FF04 2-392): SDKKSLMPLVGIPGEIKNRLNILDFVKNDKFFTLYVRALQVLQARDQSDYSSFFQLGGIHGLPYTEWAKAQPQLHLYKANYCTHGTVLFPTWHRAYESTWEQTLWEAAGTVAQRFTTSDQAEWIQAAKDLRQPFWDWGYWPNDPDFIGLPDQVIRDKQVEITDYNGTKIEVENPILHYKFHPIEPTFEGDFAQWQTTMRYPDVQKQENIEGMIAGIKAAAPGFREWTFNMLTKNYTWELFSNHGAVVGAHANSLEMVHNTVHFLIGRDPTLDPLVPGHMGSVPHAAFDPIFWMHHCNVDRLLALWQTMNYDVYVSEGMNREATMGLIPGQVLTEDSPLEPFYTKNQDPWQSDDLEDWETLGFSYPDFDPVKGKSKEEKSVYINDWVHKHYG

As for `Oc1ccc(-c2nc3cc4c(cc3s2)OCO4)c(O)c1` [Compound 9, 4-([1,3]Dioxolo[4′,5′:4,5]benzo[1,2-d]thiazol-6-yl)benzene-1,3-diol], the “melanin production-inhibitory potency in situ, comparison” value on B16F10 cell tyrosinase (5 μM) is given as “greater than that of 5”. For the same compound, the “number of cells strongly stained with melanin (in situ tyrosinase)” value on B16F10 cell tyrosinase (1, 2, and 5 μM, IBMX plus α-MSH, 72 h, L-dopa 2 h) is “evidently reduced the number of cells strongly stained with melanin”. In experiment [1], the “DPPH radical scavenging (inhibition)” value stood at 85%. Also, at mushroom tyrosinase (L-dopa and L-tyrosine), the “IC50 values regardless of the substrate used (in words)” value is given as “nanomolar”. For the same compound, the inhibition (usually the percentage by which the read-out fell short of the control) at 2 µM on mushroom tyrosinase (substrate L-dopa, 2.0 μM, read-out: Inhibition (%) measured at 2.0 μM (converted)) was 76.1%. For the same compound, the inhibition at 0.4 µM at mushroom tyrosinase (substrate L-tyrosine, 0.4 μM, read-out: Inhibition (%) measured at 0.4 μM (converted)) was 71.8%. The melanin content entry with B16F10 cells (1, 2, and 5 μM, IBMX 200 μM plus α-MSH 1 μM, 72 h) was “significantly reduced the stimulator-induced melanin contents”. The “melanin production inhibition compared with kojic acid” value in the experiment with B16F10 cells (same concentration (5 μM)) is recorded as “inhibited melanin production more potently than kojic acid”.

(Values after PMC11990524, “Design and Synthesis of Novel 6-(Substituted phenyl)-[1,3]dioxolo[4′,5′:4,5]benzo[1,2-d]thiazole Compounds as Tyrosinase Inhibitors: In Vitro and In Vivo Insights” (Molecules, 2025).)
